The numbers were not newly measured in patent publication US20060258633A1, “Amorphous tegaserod maleate” (priority 2005, published 2006), which cites them from elsewhere.

Molecules are shown by their SMILES.

For the data set the following is noted: white to off-white crystalline powder.

Regarding `CCCCCNC(=N)N/N=C/c1c[nH]c2ccc(OC)cc12.O=C(O)/C=C\C(=O)O` [Tegaserod maleate, 3-(5-methoxy-1H-indole-3-ylmethylene)-N-pentylcarbazimidamide hydrogen meleate], for the setting “ethanol”, the solubility in ethanol entry was “slightly soluble”. The solubility in water result (water) was “very slightly soluble”.
